Results reported in article PMC8837603, “Lapcin, a potent dual topoisomerase I/II inhibitor discovered by soil metagenome guided total chemical synthesis” (Nature Communications, 2022).

Experiments:
[1] = system: Colo205 cells; assay: cells; assay type: cell-based, human; details: Homo sapiens, COLO 205; colon cancer; MTT, 48 h, 37 °C; RPMI-1640 + 10% FBS; 2,500 cells/well; absorbance 570 nm; n = 3 biologically independent
Procedure: (§1) An MTT (2-(4,5-dimethylthiazol-2-yl)−2,5-diphenyltetrazolium bromide) assay was used to determine the cytotoxicity of lapcin towards diverse cancer cell lines. Lapcin was dissolved in DMSO to make a 3.2 mg/mL working solution. For each cancer line detailed in Supplementary Table 5, cells at 80-90% confluency were counted and seeded in 96-well, flat bottom microplates and incubated at 37 °C with a 5% CO2 atmosphere. Outer wells were unused to avoid edge effects. After adhering for 24 h, the medium was sterilely aspirated and replaced with 100 µL of fresh medium containing lapcin or a control compound serially diluted at concentrations ranging from 8,000 to 0.00382 ng/mL. After 48 h (37 °C, 5% CO2), the medium was carefully removed and 110 µL of freshly prepared MTT solution (10 µL of 5 mg/mL MTT in PBS (pH 7.4) premixed with 100 µL of complete medium) was added to each well. After 3 h at 37 °C with 5% CO2, 100 µL of solubilization solution (40% DMF, 16% SDS and 2% acetic acid in H2O) was added to each well and precipitated formazan crystals were allowed to dissolve for 4 h. The absorbance of each well was then measured at 570 nm using a Tecan microplate reader.

[2] = system: HCT116 cells; assay: cells; assay type: cell-based, human; details: Homo sapiens, HCT-116; colon cancer; MTT, 48 h, 37 °C; DMEM + 10% FBS; 10,000 cells/well; absorbance 570 nm; n = 3 biologically independent
Procedure: as §1

[3] = system: U2OS (Bone) cells; assay: cells; assay type: cell-based, human; details: Homo sapiens, U2OS; bone cancer; MTT, 48 h, 37 °C; DMEM + 10% FBS + NEAA; 2,500 cells/well; absorbance 570 nm; n = 3 biologically independent
Procedure: as §1

[4] = system: SW480 cells; assay: cells; assay type: cell-based, human; details: Homo sapiens, SW480; colon cancer; MTT, 48 h, 37 °C; DMEM + 10% FBS; 10,000 cells/well; absorbance 570 nm; n = 3 biologically independent
Procedure: as §1

[5] = system: HT29 cells; assay: cells; assay type: cell-based, human; details: Homo sapiens, HT-29; colon cancer; MTT, 48 h, 37 °C; DMEM + 10% FBS; 2,500 cells/well; absorbance 570 nm; n = 3 biologically independent
Procedure: as §1

[6] = system: HCC1806 cells; assay: cells; assay type: cell-based, human; details: Homo sapiens, HCC1806; breast cancer; MTT, 48 h, 37 °C; RPMI-1640 + 10% FBS; 2,500 cells/well; absorbance 570 nm; n = 3 biologically independent
Procedure: as §1

[7] = system: HEK293 cells; assay: cells; assay type: cell-based, human; details: Homo sapiens, HEK293; normal cell; MTT, 48 h, 37 °C; DMEM + 10% FBS; 5, 000 cells/well; absorbance 570 nm; n = 3 biologically independent
Procedure: as §1

[8] = system: Hela (Cervical) cells; assay: cells; assay type: cell-based, human; details: Homo sapiens, HeLa; cervical cancer; MTT, 48 h, 37 °C; DMEM + 10% FBS; 2,500 cells/well; absorbance 570 nm; n = 3 biologically independent
Procedure: as §1

[9] = system: NCI-H226 cells; assay: cells; assay type: cell-based, human; details: Homo sapiens, NCI-H226; lung cancer; MTT, 48 h, 37 °C; RPMI-1640 + 10% FBS; 10,000 cells/well; absorbance 570 nm; n = 3 biologically independent
Procedure: as §1

[10] = system: MCF 7 cells; assay: cells; assay type: cell-based, human; details: Homo sapiens, MCF7; breast cancer; MTT, 48 h, 37 °C; DMEM + 10% FBS; 8,000 cells/well; absorbance 570 nm; n = 3 biologically independent
Procedure: as §1

[11] = system: A549 cells; assay: cells; assay type: cell-based, human; details: Homo sapiens, A549; lung cancer; MTT, 48 h, 37 °C; DMEM + 10% FBS + NEAA; 2,500 cells/well; absorbance 570 nm; n = 3 biologically independent
Procedure: as §1

[12] = system: NCI-H1299 cells; assay: cells; assay type: cell-based, human; details: Homo sapiens, NCI-H1299; lung cancer; MTT, 48 h, 37 °C; RPMI-1640 + 10% FBS; 2,500 cells/well; absorbance 570 nm; n = 3 biologically independent
Procedure: as §1

[13] = system: bacterial DNA gyrase; details: ref [9],[25]; cited from earlier work

Molecule	IC50 [1]	IC50 [2]	IC50 [3]	IC50 [4]	IC50 [5]	IC50 [6]	IC50 [7]	IC50 [8]	IC50 [9]	IC50 [10]	IC50 [11]	IC50 [12]	inhibition of bacterial DNA gyrase [13]
CC[C@@]1(O)C(=O)OCc2c1cc1n(c2=O)Cc2cc3ccccc3nc2-1 [Camptothecin]	95.7 nM	129 nM	172 nM	284 nM	22.3 nM	19.6 nM	19.2 nM	62.6 nM	28.5 nM	> 29200 nM	17.6 nM	15 nM	–
COc1cc([C@@H]2c3cc4c(cc3[C@@H](O[C@@H]3O[C@@H]5CO[C@@H](C)O[C@H]5[C@H](O)[C@H]3O)[C@H]3COC(=O)[C@H]23)OCO4)cc(OC)c1O [Etoposide]	–	> 54400 nM	1840 nM	26900 nM	9610 nM	3330 nM	729 nM	1510 nM	217 nM	333 nM	79.9 nM	716 nM	–
albicidin	–	–	–	–	–	–	–	–	–	–	–	–	inhibit the bacterial DNA gyrase
